Entries after “also recorded” stand apart in the source; their conditions may differ.
How the values were obtained:
adult S. japonicum = settings: in vitro, ref [15], cited from earlier work
Excerpt: The life-cycle of schistosomes involves snail intermediate hosts and definitive mammalian hosts including humans, in whom schistosomes can survive for decades. Remarkably, the highly sophisticated relationship between schistosomes and their mammalian hosts seems to involve exploitation by these parasites of host endocrine and immune signals. By binding many ligands including hormones, growth factors, cytokines, receptor tyrosine kinases (RTKs), which are high-affinity cell surface receptors, can be activated to trigger different signalling cellular cascades for the regulation ...

[1] = ADP assay (ADP hydrolysis/consumption by proteins); format: biochemical; settings: ADP assay kit, protein 0.13 mg/ml, 20 min incubation, ADP 0, 5, 15, 30 μM
Procedure: To measure the level of hydrolysis of ADP by the schistosome ILP, ADP assay kits (Sigma-Aldrich) were used to measure ADP levels of recombinant schistosome ILPs after their interaction with different concentrations of ADP. ADP levels in various proteins (0.13 mg/ml) were determined following their incubation for 20 min with different concentrations of ADP (0, 5, 15, 30 μM).

[2] = system: Erk (p44/42 MAPK) in adult S. japonicum; test: Erk phosphorylation in adult worms, Western blot with anti-phospho-P44/42 MAPK (Erk1/2) antibody; format: cell-based
Excerpt: It had been shown previously that an anti-phospho-P44/42 MAPK (Erk1/2) antibody could recognize exclusively activated (phosphorylated) forms of this kinase in S. mansoni because of the high sequence homology in key phosphorylation sites between kinases from schistosomes and humans, and because phosphorylation at these sites is vital for enzyme activation. […] Worms from the different groups were then collected for SWAP extraction which was undertaken in the presence of HALT protease/phosphatase inhibitor cocktail (ThermoFisher, Waltham, USA). SDS-PAGE/Western blotting was carried out as described above using the Odyssey system. […] An anti-actin antibody (Sigma-Aldrich) (1:150) was used to assess protein-loading differences. OdysseyClassic 3.0 software was used for Western blot quantification.

[3] = system: S. japonicum IRs (SjIR1 and SjIR2); set-up: method as in PMID 25961574; settings: ref [18]; cited from earlier work
[4] = biological target: recombinant Schistosoma japonicum insulin-like peptide, C-terminal fragment T31-S130 (S. japonicum); test: BLI; Octet RED, 25 °C; biotinylated rSjILP (150 ng/μl) immobilised on streptavidin biosensors, exposed to rSjLD1 or rSjLD2 (7, 14, 28, 56, 112 ng/μl); kinetic buffer (1 mM phosphate, 15 mM NaCl, 0.1 mg/ml BSA, 0.002% Tween-20); association 1000 s, dissociation 1000 s; BSA as reference
[5] = biological target: T1, recombinant ligand domain of S. japonicum insulin receptor 1 (S. japonicum, biotin (NHS-PEO4-biotin kit) where it was immobilised on streptavidin biosensors); test: BLI
T1 chain: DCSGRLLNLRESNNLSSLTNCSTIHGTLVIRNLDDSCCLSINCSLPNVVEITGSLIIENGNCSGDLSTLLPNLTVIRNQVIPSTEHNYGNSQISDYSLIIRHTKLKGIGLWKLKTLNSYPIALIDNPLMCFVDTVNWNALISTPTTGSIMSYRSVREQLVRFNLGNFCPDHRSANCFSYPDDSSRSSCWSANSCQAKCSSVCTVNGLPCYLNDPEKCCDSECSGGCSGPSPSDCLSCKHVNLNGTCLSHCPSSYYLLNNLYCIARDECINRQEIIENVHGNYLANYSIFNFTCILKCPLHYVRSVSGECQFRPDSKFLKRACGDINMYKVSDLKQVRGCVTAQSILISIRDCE

For “human insulin: human insulin (Sigma-Aldrich)”, the “increase of glucose content of adult female S. japonicum” value (adult S. japonicum; female worms) is listed as 2.9 fold, the “increase of glucose content of adult male S. japonicum” value (adult S. japonicum; male worms) is listed as 1.7 fold and the “ADP hydrolysis, result in words” value [1] is listed as “no ADP binding ability was observed”. The “reduction of Erk band intensity compared with worms co-stimulated with rSjILP and insulin” value ([2]; human insulin only (1 μM), 30 min, t (6) = 31.39, P = 0.001, experiment performed twice) was 58%, the “Erk phosphorylation (44 kDa band), result in words” value ([2]; rSjILP 1 μM and/or human insulin 1 μM, 30 min in DMEM, anti-phospho-P44/42 MAPK antibody (1:1,000), experiment performed twice) was “The Erk band was also detectable; also recorded: more phosphorylated Erk was observed in worms stimulated with human insulin compared with worms cultured without insulin” and the “reduction of Erk band intensity in worms without human insulin and rSjILP, compared with insulin only” value ([2]; value is the intensity of untreated worms relative to human insulin only (1 μM), 30 min, t (6) = 4.353, P = 0.049) was 30%. The “binding of human insulin to SjIR1 and SjIR2, in words” value [3] was “bind strongly with both SjIR1 and SjIR2”.

“recombinant ligand domain of S. japonicum insulin receptor 1 (domain or fragment)” gave a Kd [4] of 0.226 nM.

In the case of “recombinant ligand domain of S. japonicum insulin receptor 2 (domain or fragment)”, the Kd [4] is reported as 0.16 nM.

B1: recombinant Schistosoma japonicum insulin-like peptide, C-terminal fragment T31-S130 (domain or fragment)
chain: THSLPELQTDYTPINDYPIRMCGNEFLRHLKRVCAIRGIYTPLVRFKRSLEQYYDRILQRGKRFDDLCTLYTIYEPDQVVTKCCCIGCTRSYLEQFCNPS
modifications: biotin (NHS-PEO4-biotin kit) where it was immobilised on streptavidin biosensors
Work on B1 yielded a Kd [5] of 0.255 nM.

Source: article PMC5391603, “Identification and functional characterisation of a Schistosoma japonicum insulin-like peptide” (Parasites & Vectors, 2017)
